Laboratory results published in patent publication US20050137251A1, “Dexanabinol and dexanabinol analogs regulate inflammation related genes” (priority 2002, published 2005).

How the values were obtained:
[1] = test system: activated microglia cells; experiment: Activated microglia (F4/80 immunohistochemistry) in hippocampus of LPS injected mice brains; assay type: in vivo; details: 20 mg/kg, 72 hours after LPS
Description: The local i.c.v. injection of LPS in mice brain stimulates a wide range of inflammatory responses and cascades where various cytokines and chemokines are implicated. Following the results obtained in examples 3 and 4, we decided to assess the effect of additional active compounds of the invention on other genes involved in the inflammatory response. Specifically, we tested the impact of dexanabinol and PRS-211,092, both at 20 mg/kg, on the expression of pro-inflammatory IL-1β cytokine. The protocol was basically as previously described with minor modifications. The amount of LPS injected in the mice brain was raised to 250 ng and the animals were sacrificed 24 hours after LPS and treatment injection for mRNA analysis, carried out as previously described. Moreover, some animals were kept alive and sacrificed 72 hours after LPS and treatment injection for immunohistochemical analysis. For this purpose, after euthanizing the animals by injecting i.p. 100 mg/kg of sodium pentobarbitone, brains were removed and fixed in 4% formaldehyde for at least 72 hours. Brains were then washed with PBS and transferred for cryoprotection in a solution of 30% sucrose in PBS, until they sank. […] Quantitative analysis was carried out by counting the number of immunoreactive cells/mm^2 at the level of the hippocampus.

COX-2 gene expression = COX-2 gene expression in activated Jurkat T cells; assay type: cell-based, human; details: 10 μM, normalized to GAPDH
Description: II reverse transcriptase (Life Technologies).
The human acute lymphoma T cell line Jurkat (ATCC # TIB 152) was used to test the possible immunosuppressive effect of dexanabinol and its analogs on T cell activation. The Jurkat cells were grown in RPMI 1640 medium with 2 mM L-glutamine adjusted to contain 1.5 g/L sodium bicarbonate, 4.5 g/L glucose, 10 mM HEPES, 1.0 mM sodium pyruvate, and 10% heat inactivated fetal bovine serum. Cells were grown in tissue culture flasks and seeded at appropriate density into 24 wells tissue culture plates. 2×10^6 cells in one milliliter were stimulated using 10 ng/ml of PMA (Sigma) and 1 μM A23187 calcium ionophore (Sigma). […] The controls and test compounds were added at indicated concentrations one hour before stimulation.
In addition, we used this experimental system to test the impact of dexanabinol and its analogs on COX-2 gene expression. Following activation of Jurkat cells with PMA and calcium ionophore we obtained elevated COX-2 gene expression levels. The impact of the test compounds on COX-2 was assessed as previously described for IL-2. FIG. 2 depicts the results of this experiment as fold activation of COX-2 over non-activated T cells. The results are plotted after normalization to GAPDH expression. […]

[2] = test system: TH-immunoreactive cells at the SNpc (MPTP-induced dopaminergic toxicity); experiment: MPTP short-term model: TH immunoreactive cells at the SNpc; assay type: in vivo, mice
Description: The mice (C57/BL male mice, average weight 30 g, Harlan, Israel) were administered i.p. with 4 injections of MPTP (Sigma, USA) (20 mg/kg, 5 ml/kg) in saline (Teva Medical Israel) at 2 hours interval on day 1. The test compounds and vehicle control (cremophor:ethanol diluted in saline) were injected i.p. once just before the first MPTP administration at a volume dose of 5 ml/kg. Dexanabinol was tested at 10, 20, and 30 mg/kg and PRS-211,220 was tested at 0.5, 1, and 5 mg/kg. Each treatment group was composed of at least seven animals. Seven days following the MPTP treatment the animals are euthanized by i.p. administration of 100 mg/kg pentobarbitone sodium (CTS, Israel) and their brains are removed for tyrosine hydroxylase (TH) detection using immunohistochemistry.
Brains were fixed by immersion in 4% formaldehyde for at least 72 hours. The brains were then washed with PBS and transferred to 30% sucrose in PBS until they sank. […] Quantitative analysis was carried out by counting the number of TH-immunoreactive cells/mm^2 at the widest area of the SNpc.
Treatment of the animals with the test compounds results in a dose-dependent preservation of the TH-IR cells. Percent preservation is calculated by dividing the number of rescued cells (treatment-MPTP) by the maximal possible number of rescued cells (saline-MPTP). […]

iNOS gene expression = iNOS gene expression in MCAo mice brains; details: 5 mg/kg i.v., 18 hrs following MCAo

SMILES: CCCCCCC(C)(C)c1cc(O)c2c(c1)OC(C)(C)[C@H]1CC=C(CO)C[C@H]21 [dexanabinol, 1,1-dimethylheptyl-(3S,4S)-7-hydroxy-Δ^6-tetrahydrocannabinol]
- Reduction of the amount of activated microglia vs vehicle [1]: 40%
- Inhibition of COX-2 gene expression (COX-2 gene expression): 88%
- Preservation of TH-IR cells ([2]; 20 mg/kg i.p., seven days after MPTP): about 25%
- Effect of increasing the dose on TH-IR cell preservation ([2]; 30 mg/kg vs 20 mg/kg): no significant effect
- Modulation of iNOS gene expression (iNOS gene expression): not modulated
